In article PMC10847579, “Recording ten-fold larger IKr conductances with automated patch clamping using equimolar Cs^+ solutions” (Frontiers in Physiology, 2024):

Columns and labels:
[1] = target: T1, hERG channel (Homo sapiens, UniProt Q12809); experiment: Automated patch clamp (Nanion Patchliner) of hERG current in CHO-hERG cells with K+ solutions; format: cell-based
T1 construct: host or cells: CHO cre/lox hERG
Experimental: (§1) A cell passage was performed twice a week and kept under 20 passages for optimal cell quality. […] Thereafter, the cells were resuspended in 1.7 mL external K^+ solution.
(§2) After sample preparation, experiments on CHO cells were performed at 22°C on the Nanion® Patchliner system (Nanion Technologies, Munich, Germany) with a EPC-10 Quadro Amplifier (HEKA, Reutlingen, Germany) controlled by Patchmaster 2.90.5. Recordings were performed using membrane capacitance and series resistance compensation (70%). The chip (NPC-16 medium resistance, Nanion Technologies) was filled with either the K^+ or Cs^+ internal and external solution with a resistance between 2 and 4 MOhm. Thereafter, the cells were added to the chip. After the capture of a cell, the seal enhancer solution was added, obtaining a Rseal of at least 200 MOhm. Next, the chip was flushed with an external solution. During the experiment, four cells were measured simultaneously in separate chambers of the chip.
(§3) For all experiments, the drugs were incubated for 60 s before measuring and an activation pulse of +20 mV and −80 mV both for 500 m was given to open the channel and achieve the steady-state ion channel–drug interaction.
For Cs^+-based experiments, the cells were depolarized from a holding potential of −80 mV in 10-mV increments between −70 mV and +40 mV for 3 s. Thereafter, the cell was clamped back to −80 mV for 2 s, followed by a hyperpolarization step to −100 mV for 50 ms before returning to −80 mV. In K^+-based experiments, the cells were clamped at a holding potential of −80 mV before a hyperpolarizing step to −120 mV for 10 ms and returned to −80 mV for 50 ms before cells were depolarized from −60 mV to 60 mV in 10-mV increments for 1 s. Thereafter, the cells were clamped back to −50 mV for 500 ms and finally returned to −80 mV. The interval between sweeps was 10 s for both protocols.
For the stock solutions, the drugs were dissolved in ddH2O and for the working solution diluted in either the K^+ or Cs^+ external solution. The different concentrations per compound were sequentially tested on the same cell.
For all measured currents, the current densities (pA/pF) were determined by normalizing for the membrane capacitance. The current densities were converted to conductance densities (pS/pF) using reversal potentials calculated using the Nernst equation for the solution and temperature used.
Dose–response curves were made with the tail current values at 40 mV, which were the largest current densities.
All averages are expressed as mean ± SEM for the (maximal) conductance values and IC50 values. To determine the amount of block, a two-way ANOVA with Dunnett’s test was performed with the maximal conductance values. […]

[2] = target: T1, hERG channel; experiment: Automated patch clamp (Nanion Patchliner) of hERG current in CHO-hERG cells with equimolar Cs+ solutions; format: cell-based
Experimental: as §1, §2, §3
For Cs^+-based experiments, the cells were depolarized from a holding potential of −80 mV in 10-mV increments between −70 mV and +40 mV for 3 s. Thereafter, the cell was clamped back to −80 mV for 2 s, followed by a hyperpolarization step to −100 mV for 50 ms before returning to −80 mV. In K^+-based experiments, the cells were clamped at a holding potential of −80 mV before a hyperpolarizing step to −120 mV for 10 ms and returned to −80 mV for 50 ms before cells were depolarized from −60 mV to 60 mV in 10-mV increments for 1 s. […]
For all measured currents, the current densities (pA/pF) were determined by normalizing for the membrane capacitance. The current densities were converted to conductance densities (pS/pF) using reversal potentials calculated using the Nernst equation for the solution and temperature used. […]
All averages are expressed as mean ± SEM for the (maximal) conductance values and IC50 values. […]

T1 sequence (Q12809 whole entry): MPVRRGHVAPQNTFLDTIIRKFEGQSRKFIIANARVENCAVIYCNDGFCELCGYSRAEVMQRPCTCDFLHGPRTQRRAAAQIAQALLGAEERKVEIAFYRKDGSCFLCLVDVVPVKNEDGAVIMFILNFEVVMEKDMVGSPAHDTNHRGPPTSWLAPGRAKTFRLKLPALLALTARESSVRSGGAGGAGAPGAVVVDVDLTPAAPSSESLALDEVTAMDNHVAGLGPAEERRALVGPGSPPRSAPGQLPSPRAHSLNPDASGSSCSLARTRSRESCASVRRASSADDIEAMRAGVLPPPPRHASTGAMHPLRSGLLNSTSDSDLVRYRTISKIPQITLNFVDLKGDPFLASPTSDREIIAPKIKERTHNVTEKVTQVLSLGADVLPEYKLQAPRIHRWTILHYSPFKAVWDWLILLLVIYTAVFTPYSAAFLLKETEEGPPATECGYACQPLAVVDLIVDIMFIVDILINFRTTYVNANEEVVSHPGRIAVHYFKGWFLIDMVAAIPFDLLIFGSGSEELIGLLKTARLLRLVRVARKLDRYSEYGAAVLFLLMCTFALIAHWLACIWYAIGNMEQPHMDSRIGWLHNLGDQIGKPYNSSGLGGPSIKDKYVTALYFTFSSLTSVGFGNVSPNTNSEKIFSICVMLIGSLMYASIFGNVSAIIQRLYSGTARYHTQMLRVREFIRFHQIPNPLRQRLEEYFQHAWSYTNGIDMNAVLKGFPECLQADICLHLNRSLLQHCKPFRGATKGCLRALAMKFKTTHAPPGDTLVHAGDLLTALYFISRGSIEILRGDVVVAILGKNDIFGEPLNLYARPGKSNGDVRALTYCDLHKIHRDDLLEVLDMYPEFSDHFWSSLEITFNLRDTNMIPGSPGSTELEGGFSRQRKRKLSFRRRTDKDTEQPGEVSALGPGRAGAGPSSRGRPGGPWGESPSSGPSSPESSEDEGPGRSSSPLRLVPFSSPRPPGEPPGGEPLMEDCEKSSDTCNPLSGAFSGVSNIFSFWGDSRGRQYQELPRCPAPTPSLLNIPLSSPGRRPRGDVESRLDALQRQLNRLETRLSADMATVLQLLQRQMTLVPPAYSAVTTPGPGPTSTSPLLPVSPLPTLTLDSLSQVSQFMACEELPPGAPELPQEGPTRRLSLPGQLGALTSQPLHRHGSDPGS

CNCCCN1c2ccccc2CCc2ccccc21 [Desipramine]
effect on K+ step conductance ([1]; K+ solutions, 1 µM): almost completely inhibited
effect on K+ tail conductance ([1]; K+ solutions, 100 and 1,000 µM): completely blocked
Hill coef. ([1]; K+ solutions, tail current at +40 mV): −1.4
strength of hERG current inhibition ([1]; comparison of the drugs, Figure 1 (K+ and Cs+ solutions)): modest inhibition
effect on Cs+ step conductance ([2]; 100 µM (highest)): slightly decreased
effect on Cs+ tail conductance ([2]; 100 µM (highest)): strong decrease but not a complete block
Hill coef. ([2]; tail current at +40 mV): −1.4
